Laboratory results as given in patent publication US7671061B2, “Methods and compositions for treating pain” (Hydra Biosciences, Inc., priority 2005, dated 2010).
“Also recorded” adds a separate entry of the source.

Columns and labels:
hTRPV3 = target: T1, hTRPV3 (Homo sapiens, UniProt Q8NET8); experiment: hTRPV3 patch clamp selectivity; format: cell-based; conditions: Table 2
T1 sequence (Q8NET8 1-790): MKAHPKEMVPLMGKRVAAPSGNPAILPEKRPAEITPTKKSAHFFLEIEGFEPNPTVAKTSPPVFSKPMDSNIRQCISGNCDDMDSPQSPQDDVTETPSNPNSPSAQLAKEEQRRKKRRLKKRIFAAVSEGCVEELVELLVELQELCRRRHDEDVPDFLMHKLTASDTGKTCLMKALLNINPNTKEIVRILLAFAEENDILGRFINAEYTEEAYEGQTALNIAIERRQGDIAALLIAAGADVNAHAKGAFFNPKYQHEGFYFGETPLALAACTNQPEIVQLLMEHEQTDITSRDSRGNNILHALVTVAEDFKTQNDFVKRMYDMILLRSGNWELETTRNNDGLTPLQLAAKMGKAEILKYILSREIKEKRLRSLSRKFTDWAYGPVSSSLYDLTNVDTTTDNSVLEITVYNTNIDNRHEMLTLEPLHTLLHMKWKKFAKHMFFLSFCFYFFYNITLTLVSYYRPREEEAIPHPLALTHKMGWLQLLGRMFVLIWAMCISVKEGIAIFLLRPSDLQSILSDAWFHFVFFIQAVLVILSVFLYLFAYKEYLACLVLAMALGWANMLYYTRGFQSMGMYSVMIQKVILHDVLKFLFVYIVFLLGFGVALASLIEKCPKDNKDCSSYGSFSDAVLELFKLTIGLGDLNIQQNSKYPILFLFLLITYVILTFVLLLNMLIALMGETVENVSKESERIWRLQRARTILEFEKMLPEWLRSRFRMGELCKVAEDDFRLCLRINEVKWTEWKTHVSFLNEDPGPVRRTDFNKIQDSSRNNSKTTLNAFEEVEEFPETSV

[1] = test system: bradykinin induced tactile allodynia; experiment: Bradykinin induced pain model; format: in vivo, rat
Protocol: As outlined above, the bradykinin model involves an intraplantar injection of a 5 ng/uL solution of bradykinin. Injection of the bradykinin solution typically causes a rapid sensitization. Sensitization is measured by assessing the thermal escape latency of the injected paw in response to a mild thermal stimulus delivered by a modified Hargreaves apparatus. FIGS. 1a and 1b summarize data obtained following testing of Compound 200 in the bradykinin model. This study examined the antinociceptive effects of 200 mg/kg, 50 mg/kg, and 12.5 mg/kg intraperitoneal Compound 200 on bradykinin induced tactile allodynia. […] Inhibitor or vehicle were injected intraperitoneally (IP). […] Throughout the study, general behavioral assessments were made during each period of observation. Observations included tactile allodynia (vocalization/agitation induced by light touch applied to the body surface), spontaneous vocalization, biting and chewing of body surface, loss of hind limb placing and stepping reflex, loss of hind limb weight bearing, and loss of righting reflex. Additionally, mechanical allodynia was assessed and measured. The results provided in FIGS. 1a and 1b are based on assessment of mechanical allodynia.

formalin model = experiment: Formalin model of pain; format: in vivo, rat; conditions: both Early Phase and Late Phase, drug 15 min before formalin
Protocol: As outlined above, the formalin model involves injection of a formalin solution intradermally or […]. Injection of formalin solution invokes a biphasic response, and thus provides a model for both nociceptive and inflammatory pain. The formalin model can be used to evaluate the effectiveness of an exemplary TRPA1 inhibitor in the treatment of pain. […] Briefly, the following protocol was followed. Male Holtzmann rats received intraplantar injections of 50 μL of 2% formalin. Paw flinching was detected by an automated sensor detecting movement of a small metal band placed on the injected hind paw. Drug or vehicle was administered approximately 15 minutes prior to the injection of formalin. The animal's response to injection of the irritant was measured by counting flinches per minutes during the Early Phase (the first 5 minutes following injection of formalin), during the Late Phase (approximately 30 minutes after injection of formalin), and during the intervening pain free phase. In FIG. 2, the right most bar for each data set (Early Phase and Late Phase) represents administration of vehicle alone and the left most bar represents administration of gabapentin. […]

[2] = test system: CFA model of inflammatory pain; experiment: CFA model of inflammatory pain
Protocol: FIG. 4 summarizes data obtained following testing of Compound 200 in the CFA model. Naive rats were pretested for sensitivity to a heat stimulus in the Hargreaves apparatus. The next day, 100 μL of complete Freund's adjuvant (CFA) was injected into the plantar surface of the right hindpaw. Two days later, in the morning, the rats were again pretested. In the afternoon, rats were injected with either vehicle control or with drug (TRPA1 inhibitor 200 or the non-steroidal anti-inflammatory diclofenac). Drugs or vehicle were injected intraperitoneally, and 45 minutes later rats were tested for hyperalgesia by applying the heat source to the CFA injected and uninjected hindpaw and measuring latency to withdrawal.

[3] = test system: BOO model of incontinence; conditions: BOO rats, intravesical infusion
Text: Efficacy of the varying doses of TRPA1 inhibitory compound were compared to controls administered excipients alone (sham control). Efficacy was also compared to rats administered a positive control, such as atropine.
Female Sprague Dawley rats were used in these studies. Rats underwent surgical partial bladder outlet obstruction (BOO) or sham surgery. Five weeks after BOO (or sham) surgery, an intravesical catheter was surgically implanted into the dome of the bladder for conducting urodynamic studies. One week after catheter implantation (6 weeks after BOO or sham), urodynamic studies began. […] An analytic balance beneath the wire-bottom animal cage measured the amount of urine voided during continuous cystometry. […]
For each CMG cycle, the following parameters were assessed: infused volume (the amount of saline or drug infused for each CMG cycle); void volume (the amount of urine voided by the animal for each CMG cycle); minimum pressure (minimum pressure during filling); threshold pressure (pressure prior to micturition when bladder pressure begins to rise steeply); average pressure (average pressure during filling and before threshold); maximum pressure; intermicturition interval (time between two subsequent voiding events); urine flow rate index.

In the case of `CC(C)c1ccc(NC(=O)Cn2cnc3c2c(=O)n(C)c(=O)n3C)cc1` [Compound 200, 2-(1,3-dimethyl-2,6-dioxo-1,2,3,6-tetrahydropurin-7-yl)-N-(4-isopropylphenyl)acetamide], the “selective for TRPA1 over TRPV3” value (hTRPV3) is reported as at least 5 fold, the IC50 (hTRPV3; read-out: hTRPV3 P1 inward IC50) is reported as over 10 µM and the “effect on mechanical threshold / allodynia after bradykinin injection” value ([1]; IP 12.5, 50, 200 mg/kg, 30 min before bradykinin) is reported as “dose dependent effect; also recorded: dose dependent decrease of allodynia”. The “changes in behavioral parameters” value ([1]; IP doses up to 200 mg/kg) was “no changes in behavioral parameters were noted”, the “duration of effect on mechanical threshold” value ([1]; IP doses up to 200 mg/kg) was “approximately 60 minutes” and the “rats with mild sedation” value ([1]; highest dose (200 mg/kg IP)) was 3 of 8. The flinches per minute (formalin model) was “substantially reduced”, the “efficacy compared with diclofenac” value ([2]; IP) was “superior to diclofenac” and the thermal hyperalgesia ([2]; IP, 45 minutes before test, CFA injected paw) was “reduced”. For the same molecule, the toxicity ([2]; rat, in vivo, ip) was “without toxicity”, the “control paw (uninflamed) sensation” value ([2]; uninjected hindpaw) was “not affected” and the maximum bladder pressure [3] was “decreased”. The threshold bladder pressure [3] was “decreased”.
